From patent US8883782B2, “Spiro-tetracyclic ring compounds as beta-secretase modulators and methods of use” (Amgen Inc., priority 2010, dated 2014) come the findings set out here.

Test [1] has as its target Beta Secretase enzyme (BACE) (Homo sapiens, UniProt P56817). The experiment in a line: In vitro enzymatic BACE FRET (fluorescence resonance energy transfer) assay. In kind it is biochemical. Conditions: average IC50, enzyme assay; read-out: BACE 1 FRET assay. In short, it runs like this: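 Fluorescence read after Tris quench to neutral pH. Reaction: 50 nM fluorophore/quencher peptide substrate, 1 h, in 0.05 M acetate pH 4.2, 10% DMSO final, 100 uM genapol.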

In test [2] the test system is Aβ40 in conditioned medium of cells stably expressing Amyloid Precursor Protein (APP). The experiment in a line: In vitro BACE cell-based assay (Aβ40 in conditioned medium, sandwich ELISA). Conditions: read-out: HEK cell assay. Summed up: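 Step two: 10-point compound titration added, starting 100 μM or 10 μM, 0.1% DMSO. Step three: medium Aβ40 measured by ELISA, capture 3 h and detection 2 h at 4° C, TRF read.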

The mark [3] stands for this setting: Homo sapiens, HEK293, average IC50.
Setting [4] is: Homo sapiens, HEK293, average IC50, HEK cells.

pIC50: −log10 of the molar value. Like-named read-outs stand apart in the source and are kept apart here.

Beta Secretase enzyme (BACE), sequence (P56817 46-501, species assumed): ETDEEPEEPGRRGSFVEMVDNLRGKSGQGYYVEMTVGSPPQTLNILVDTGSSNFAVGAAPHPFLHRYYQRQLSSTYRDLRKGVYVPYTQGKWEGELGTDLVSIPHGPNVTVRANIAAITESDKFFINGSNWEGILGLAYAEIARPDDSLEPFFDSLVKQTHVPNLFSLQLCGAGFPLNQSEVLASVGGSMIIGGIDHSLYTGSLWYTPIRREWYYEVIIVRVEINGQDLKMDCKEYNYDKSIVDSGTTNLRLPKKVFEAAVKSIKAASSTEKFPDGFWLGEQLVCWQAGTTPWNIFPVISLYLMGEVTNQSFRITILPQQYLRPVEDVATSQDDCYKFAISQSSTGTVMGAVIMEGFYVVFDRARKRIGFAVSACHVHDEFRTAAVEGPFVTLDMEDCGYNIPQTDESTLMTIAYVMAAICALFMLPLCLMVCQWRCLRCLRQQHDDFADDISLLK

As to `Cc1ccnn1-c1cnc2c(c1)[C@]1(COC(N)=N1)c1cc(-c3cccnc3F)ccc1O2` [Example 1020, (5S)-7-(2-fluoro-3-pyridinyl)-3-(5-methyl-1H-pyrazol-1-yl)spiro[chromeno[2,3-b]pyridine-5,4′-[1,3]oxazol]-2′-amine], the pIC50 in test [1] was 7.78; in test [2] (setting [3]), 6.07.

`NC1=N[C@]2(CO1)c1cc(I)ccc1Oc1ncc(Br)cc12` [Example 1017, (5R)-3-bromo-7-iodospiro[chromeno[2,3-b]pyridine-5,4′-[1,3]oxazol]-2′-amine]: the pIC50 in test [1] was 4.56; in test [2] (setting [3]), 6.05.

Take `COc1ccnc(F)c1-c1ccc2c(c1)[C@@]1(COC(N)=N1)c1cc(-c3ccnc(F)c3)ncc1O2` [Example 681, (5S)-7-(2-fluoro-4-methoxy-3-pyridinyl)-3-(2-fluoro-4-pyridinyl)spiro[chromeno[2,3-c]pyridine-5,4′-[1,3]oxazol]-2′-amine]: the pIC50 is 9.30 in test [1] and 7.92 in test [2] (setting [4]).

For the molecule `NC1=N[C@@]2(CO1)c1cc(I)ccc1Oc1ncc(Br)cc12` [Example 1016, (5S)-3-bromo-7-iodospiro[chromeno[2,3-b]pyridine-5,4′-[1,3]oxazol]-2′-amine], the results for the pIC50 in test [1] and in test [2] (setting [3]) were 9.15 and 7.92, respectively.

In the case of `COc1nc(-c2ccncc2)cc2c1Oc1ccc(-c3cccnc3)cc1[C@@]21COC(N)=N1` [Example 838, (5S)-1-methoxy-7-(3-pyridinyl)-3-(4-pyridinyl)spiro[chromeno[2,3-c]pyridine-5,4′-[1,3]oxazol]-2′-amine], the pIC50 is 8.14 in test [1] and 7.70 in test [2] (setting [3]).

For `CC1(C#Cc2cnc3c(c2)[C@]2(COC(N)=N2)c2cc(-c4ccc(F)c(C#N)c4)ccc2O3)COC1` [Example 787, 5-((5S)-2′-amino-3-((3-methyl-3-oxetanyl)ethynyl)spiro[chromeno[2,3-b]pyridine-5,4′-[1,3]oxazol]-7-yl)-2-fluorobenzonitrile], the pIC50 was 8.25 in test [1] and 7.36 in test [2] (setting [3]).

Regarding `Cn1cc(-c2cnc3c(c2)[C@]2(COC(N)=N2)c2c(ccc(-c4cccnc4F)c2F)O3)cn1` [Example 356, (5R)-6-fluoro-7-(2-fluoro-3-pyridinyl)-3-(1-methyl-1H-pyrazol-4-yl)spiro[chromeno[2,3-b]pyridine-5,4′-[1,3]oxazol]-2′-amine], the pIC50 is 9.05 in test [1] and 7.86 in test [2] (setting [3]).

As for `CC1(C)C[C@@H](c2cnc3c(c2)[C@]2(COC(N)=N2)c2cc(-c4cncc(Cl)c4)ccc2O3)CCO1` [Example 466, (5S)-7-(5-chloro-3-pyridinyl)-3-((4S)-2,2-dimethyltetrahydro-2H-pyran-4-yl)spiro[chromeno[2,3-b]pyridine-5,4′-[1,3]oxazol]-2′-amine], the values for the pIC50 in test [1] and in test [2] (setting [4]) were 8.68 and 8.25, respectively.

As for `CC1(COc2cnc3c(c2)C2(COC(N)=N2)c2cc(-c4cc(Cl)ccc4F)ccc2O3)OCCO1` (stereo not shown) [Example 87, 7-(5-chloro-2-fluorophenyl)-3-((2-methyl-1,3-dioxolan-2-yl)methoxy)-5′H-spiro[chromeno[2,3-b]pyridine-5,4′-oxazol]-2′-amine], the pIC50 in test [1] is 8.08; in test [2] (setting [3]), 6.97.

For `CC1(C#Cc2cc(F)c3c(c2)C2(COC(N)=N2)c2cc(-c4cncc(F)c4)ncc2O3)COC1` (stereo not shown) [Example 661, 9-fluoro-3-(5-fluoro-3-pyridinyl)-7-((3-methyl-3-oxetanyl)ethynyl)spiro[chromeno[2,3-c]pyridine-5,4′-[1,3]oxazol]-2′-amine], the pIC50 is 7.74 in test [1] and 6.07 in test [2] (setting [4]).

For the molecule `CC#Cc1cncc(-c2ccc3c(c2)[C@@]2(COC(N)=N2)c2cc(Cl)nc(OC)c2O3)c1` [Example 829, (5S)-3-chloro-1-methoxy-7-(5-(1-propyn-1-yl)-3-pyridinyl)spiro[chromeno[2,3-c]pyridine-5,4′-[1,3]oxazol]-2′-amine], the pIC50 was 7.52 in test [1] and 5.39 in test [2] (setting [3]).

With `N#Cc1cccc(-c2ccc3c(c2)[C@@]2(COC(N)=N2)c2cc(N4CCC(F)(F)CC4)nc(F)c2O3)c1` [Example 923, 3-((5S)-2′-amino-3-(4,4-difluoro-1-piperidinyl)-1-fluorospiro[chromeno[2,3-c]pyridine-5,4′-[1,3]oxazol]-7-yl)benzonitrile], the pIC50 is 9.52 in test [1] and 7.49 in test [2] (setting [4]).

With `Cc1ccc(-c2cnc3c(c2)[C@]2(CSC(N)=N2)c2cc(-c4cccnc4)ccc2O3)cn1` [Example 958, (5S)-3-(6-methyl-3-pyridinyl)-7-(3-pyridinyl)spiro[chromeno[2,3-b]pyridine-5,4′-[1,3]thiazol]-2′-amine], the results for the pIC50 in test [1] and in test [2] (setting [4]) were 8.82 and 7.72, respectively.

Turning to `NC1=N[C@@]2(CO1)c1cc(-c3cnccc3F)ccc1Oc1cnc(Cl)cc12` [Example 390, (5S)-3-chloro-7-(4-fluoro-3-pyridinyl)spiro[chromeno[2,3-c]pyridine-5,4′-[1,3]oxazol]-2′-amine], the pIC50 is 6.99 in test [1] and 6.19 in test [2] (setting [4]).

Take `CC#Cc1cc(F)c2c(c1)[C@]1(COC(N)=N1)c1cc(-c3cccnc3F)ccc1O2` [Example 651, (4S)-4′-fluoro-7′-(2-fluoro-3-pyridinyl)-2′-(1-propyn-1-yl)spiro[1,3-oxazole-4,9′-xanthen]-2-amine]: the pIC50 in test [1] is 8.72; in test [2] (setting [4]), 7.43.

For the molecule `NC1=N[C@]2(CS1)c1cc(-c3cccnc3)c(F)cc1Oc1c(F)cc(C3=CCCOC3)cc12` [Example 884, (4R)-7′-(5,6-dihydro-2H-pyran-3-yl)-3′,5′-difluoro-2′-(3-pyridinyl)spiro[1,3-thiazole-4,9′-xanthen]-2-amine], the pIC50 in test [1] is 6.79; in test [2] (setting [4]), at most 5.00.

`CC1(C)C=C(c2cnc3c(c2)[C@]2(CSC(N)=N2)c2cc(-c4cccc(C#N)c4F)ccc2O3)CCO1` [Example 779, 3-((5S)-2′-amino-3-(6,6-dimethyl-3,6-dihydro-2H-pyran-4-yl)spiro[chromeno[2,3-b]pyridine-5,4′-[1,3]thiazol]-7-yl)-2-fluorobenzonitrile]: the pIC50 was 8.32 in test [1] and 6.50 in test [2] (setting [3]).

`CC1(C)CC(c2cnc3c(c2)[C@]2(COC(N)=N2)c2c(ccc(-c4cncnc4)c2F)O3)=CCO1` [Example 353, (5R)-3-(2,2-dimethyl-3,6-dihydro-2H-pyran-4-yl)-6-fluoro-7-(5-pyrimidinyl)spiro[chromeno[2,3-b]pyridine-5,4′-[1,3]oxazol]-2′-amine]: the figures for the pIC50 in test [1] and in test [2] (setting [3]) were 8.92 and 7.80, respectively.

Take `NC1=N[C@@]2(CO1)c1cc(-c3cnccn3)ccc1Oc1c(F)cc(N3CCOCC3)cc12` [Example 269, (4S)-4′-fluoro-2′-(4-morpholinyl)-7′-(2-pyrazinyl)spiro[1,3-oxazole-4,9′-xanthen]-2-amine]: the pIC50 was 8.28 in test [1] and 7.73 in test [2] (setting [3]).

On to `CC#Cc1cnc(F)c(-c2ccc3c(c2)[C@@]2(COC(N)=N2)c2cc(C4=CCOCC4)cnc2O3)c1` [Example 953, (5S)-3-(3,6-dihydro-2H-pyran-4-yl)-7-(2-fluoro-5-(1-propyn-1-yl)-3-pyridinyl)spiro[chromeno[2,3-b]pyridine-5,4′-[1,3]oxazol]-2′-amine], for which the pIC50 in test [1] was 9.52; in test [2] (setting [4]), 8.40.

As to `COC[C@H]1SC(N)=NC12c1cc(-c3cccnc3F)ccc1Oc1cnc(-c3ccnc(F)c3)cc12` (single isomer, unassigned) [Example 1093, (4′S/R,5′S)-7-(2-fluoropyridin-3-yl)-3-(2-fluoropyridin-4-yl)-5′-(methoxymethyl)-5′H-spiro[chromeno[2,3-c]pyridine-5,4′-thiazol]-2′-amine], the pIC50 in test [1] is 8.24; in test [2], 6.31.

As to `COC(C)(C)COc1cnc2c(c1)[C@@]1(COC(N)=N1)c1cc(-c3cccc(C(F)(F)F)c3)ccc1O2` [Example 316, (5R)-3-(2-methoxy-2-methylpropoxy)-7-(3-(trifluoromethyl)phenyl)spiro[chromeno[2,3-b]pyridine-5,4′-[1,3]oxazol]-2′-amine], the results for the pIC50 in test [1] and in test [2] (setting [3]) were 6.41 and 5.68, respectively.

In the case of `CC(C)(C)COc1ccc2c(c1)C1(COC(N)=N1)c1cc(C3CCCOC3)ccc1O2` [Example 911, (4S)-2′-(2,2-dimethylpropoxy)-7′-((3R)-tetrahydro-2H-pyran-3-yl)spiro[1,3-oxazole-4,9′-xanthen]-2-amine, (4S)-2′-(2,2-dimethylpropoxy)-7′-((3S)-tetrahydro-2H-pyran-3-yl)spiro[1,3-oxazole-4,9′-xanthen]-2-amine], the pIC50 in test [1] is 7.72; in test [2] (setting [4]), 5.89.

As to `NC1=N[C@@]2(CS1)c1cc(-c3cccnc3F)ccc1Oc1c(F)cc(-c3ccncc3)cc12` [Example 1068, (4S)-4′-fluoro-7′-(2-fluoro-3-pyridinyl)-2′-(4-pyridinyl)spiro[1,3-thiazole-4,9′-xanthen]-2-amine], the figures for the pIC50 in test [1] and in test [2] (setting [3]) were 8.64 and 7.21, respectively.

For `CC1(C#Cc2cc3c(c(F)n2)Oc2ccc(-c4cccnc4F)cc2[C@@]32COC(N)=N2)COC1` [Example 738, (5S)-1-fluoro-7-(2-fluoro-3-pyridinyl)-3-((3-methyl-3-oxetanyl)ethynyl)spiro[chromeno[2,3-c]pyridine-5,4′-[1,3]oxazol]-2′-amine], the pIC50 is 9.22 in test [1] and 8.00 in test [2] (setting [3]).

Take `NC1=N[C@@]2(CS1)c1cc(-c3cncc(F)c3)ccc1Oc1ncc(Br)cc12` [Example 965, (5S)-3-bromo-7-(5-fluoro-3-pyridinyl)spiro[chromeno[2,3-b]pyridine-5,4′-[1,3]thiazol]-2′-amine]: the pIC50 is 7.63 in test [1] and 6.11 in test [2] (setting [4]).
